“And” between values parts separate entries of the source, which are not always exact repeats. Identical values can stand only once. Like-named read-outs stand apart in the source and are kept apart here.
Columns and labels:
S. japonicum adult worms = assay: Schistosomicidal activity ex vivo, S. japonicum adult worms; assay type: cell-based; conditions: 48 h exposure
Method: (§1) Three-week old, female Swiss-Webster mice obtained from the Charles River were housed in the Comparative Research Center of Rush University Medical Center. Mice were infected by percutaneous tail exposure to about 200 S. mansoni or 50 S. japonicum cercaria for adult worms and about 1000 cercaria for juvenile S. mansoni worms through natural transdermal penetration of the cercariae for 1 h[81].
(§2) DMSO formulated compounds were diluted with phenol red free M199 medium or RPMI medium for NTS or juvenile and adult worms, respectively, at <1% DMSO final concentrations. NTS, juvenile and adult worms from overnight cultures were tested against compounds in triplicate. Controls were treated with DMSO alone or 5 µM AF as a positive control in appropriate medium. […] Schistosome viabilities in the presence of the compounds were assessed using this formula: % Viability = Averages of Test / Averages of DMSO Control x 100.

[1] = system: S. mansoni juvenile worms (21 days); assay: Schistosomicidal activity ex vivo, juvenile worms (21 days); assay type: cell-based; conditions: for viability at 5 µM / viability at 15 µM / viability at 30 µM: Schistosoma mansoni, 23 day S. mansoni worms, 48 HR; for viability at 5 µM: Conc. 5 µM; for viability at 15 µM: Conc. 15 µM; for viability at 30 µM: Conc. 30 µM; for LD50 ex vivo S. mansoni 21 days: juvenile worms, 48 h exposure
Method: as §1, §2

TGR [2] = target: T1, TGR (Schistosoma mansoni, UniProt Q962Y6); assay: Reversibility by jump dilution; assay type: biochemical; conditions: for % Activity (ID list), D60 / % Inhibition (ID list), D60: D60: diluted 1:100, activity determined after 60 min; for Inhibitor (rate), 0 min / % Activity, 0 min: [0, D0]: 15 min preincubation inhibitor + TGR + NADPH, diluted 1:100, then activity determined immediately; for Inhibitor (rate), 0 min / Inhibitor (rate), 60 min / Inhibitor (rate), -15: raw rate; for % Activity, 0 min / % Activity, 60 min / % Activity, -15: relative to DMSO; for Inhibitor (rate), 60 min / % Activity, 60 min: [60, D60]: 15 min preincubation inhibitor + TGR + NADPH, diluted 1:100, then activity determined after 60 min; for Inhibitor (rate), -15 / % Activity, -15: [-15]: 15 min preincubation inhibitor + TGR + NADPH, then activity determined, replicates; for % Activity (ID list) / % Inhibition (ID list): before dilution (-15)
T1 construct: made in house
T1 sequence (Q962Y6 1-598): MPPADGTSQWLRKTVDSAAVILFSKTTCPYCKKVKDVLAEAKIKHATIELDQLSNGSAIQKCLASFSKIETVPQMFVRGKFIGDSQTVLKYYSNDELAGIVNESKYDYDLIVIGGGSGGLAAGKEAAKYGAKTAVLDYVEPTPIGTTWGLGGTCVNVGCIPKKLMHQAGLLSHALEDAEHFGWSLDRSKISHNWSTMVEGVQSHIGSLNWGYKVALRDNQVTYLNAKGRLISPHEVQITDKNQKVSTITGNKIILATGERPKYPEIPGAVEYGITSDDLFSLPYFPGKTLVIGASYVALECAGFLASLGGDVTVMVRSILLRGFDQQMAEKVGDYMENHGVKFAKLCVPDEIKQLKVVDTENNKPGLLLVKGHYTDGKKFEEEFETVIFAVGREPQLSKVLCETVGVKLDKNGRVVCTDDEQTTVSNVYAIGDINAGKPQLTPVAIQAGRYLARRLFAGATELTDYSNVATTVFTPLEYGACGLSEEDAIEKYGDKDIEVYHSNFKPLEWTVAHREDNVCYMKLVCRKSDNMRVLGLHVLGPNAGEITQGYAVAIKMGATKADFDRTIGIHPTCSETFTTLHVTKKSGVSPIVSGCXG
Method: A reaction of 370 nM TGR, 100 µM NADPH, and 250 µM inhibitor was incubated for 15 min at room temperature. A 100x dilution of the reaction was made and the activity was determined immediately and after 60 min.

BmTrxR = BmTrxR (Brugia malayi, UniProt A0A1I9G0T9); assay: B. malayi TrxR enzyme inhibition; assay type: biochemical; conditions: for inhibition at 10 µM: 10 µM compound; for inhibition at 25 µM: 25 µM compound
Method: Recombinant TGR, human TrxR1, B. malayi (Bm)TrxR and human GR proteins were expressed and purified as described[20],[69],[79]. The codon optimized sequence for P. falciparum (PfTrxR, https://www.ncbi.nlm.nih.gov/protein/CAA60574.1/) with an N-terminal 6-His tag was synthesized and inserted into pET15b (GenScript) and expressed in BL21 (DE3) cells and purified as described for human GR[20]. […] The reaction was started with addition of an equal volume of DTNB (6 mM) and NADPH (100 µM) and the increase in A412 during the first 3 min was recorded. […] Activity was initiated with the addition of 1 mM GSSG and 100 μM NADPH and initial rates of NADPH oxidation were monitored at 340 nm. The reactions were done in triplicate. The IC50 was calculated in GraphPad Prism.

TGR [3] = target: T1, TGR; assay: Thermal shift assay (TSA); assay type: binding; design: key to Avg. Tm / Tm, replicate 1-3: Tm in °C, from a 25–95 °C melt curve
Method: Samples were prepared by using a final concentration of 0.25 mg/ml TGR diluted in TGR reaction buffer to the desired volume. To evaluate reduced TGR, 500 µM NADPH was added. […] After the preincubation period, 20 µL samples were pipetted into a BioRad un-skirted PCR 96 well plate and sealed with MicroAmp^TM Optical Adhesive film. The plate was then centrifuged for 5 min at 1000 × g. TSA was carried out using a BioRad CFX Connect qPCR instrument with a melt curve setting of 25 − 95 °C, in increments of 0.5 °C/10 seconds. The SYBR green channel was used to detect fluorescence as the wavelength of flavin fluorescence overlaps with that of SYBR green. BioRad CFX Maestro 5.2 was used to analyze TSA data.

[4] = D0: diluted 1:100, activity determined immediately, list for plotting
[5] = BmTrxR, mean of 3 replicates, read-out: % inhibition
[6] = BmTrxR, 50 µM compound, mean of 3 replicates, read-out: % inhibition

BmTrxR, sequence (A0A1I9G0T9 entry or part of it, added parts left off): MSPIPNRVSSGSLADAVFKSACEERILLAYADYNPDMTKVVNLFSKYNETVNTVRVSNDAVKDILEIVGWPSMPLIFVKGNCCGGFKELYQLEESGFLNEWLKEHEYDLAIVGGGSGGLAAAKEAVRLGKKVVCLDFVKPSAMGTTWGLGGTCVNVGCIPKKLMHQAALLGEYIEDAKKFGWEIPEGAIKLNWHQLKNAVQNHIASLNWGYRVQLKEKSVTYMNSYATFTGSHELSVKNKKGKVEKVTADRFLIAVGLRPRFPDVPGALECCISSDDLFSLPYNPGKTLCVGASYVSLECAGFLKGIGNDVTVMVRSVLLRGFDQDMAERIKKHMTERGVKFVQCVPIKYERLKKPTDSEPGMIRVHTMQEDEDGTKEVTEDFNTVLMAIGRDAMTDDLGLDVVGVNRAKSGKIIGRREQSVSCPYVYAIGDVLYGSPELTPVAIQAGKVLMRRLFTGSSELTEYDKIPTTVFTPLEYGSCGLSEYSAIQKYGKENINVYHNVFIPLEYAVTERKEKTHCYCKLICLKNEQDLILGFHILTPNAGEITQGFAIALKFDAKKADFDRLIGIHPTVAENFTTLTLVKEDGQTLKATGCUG

| Compound | viability at 5 µM [1] | viability at 15 µM [1] | viability at 30 µM [1] | LD50 ex vivo S. mansoni 21 days [1] | % Activity (ID list), D0 (TGR [2]; [4]) | % Activity (ID list), D60 (TGR [2]; list for plotting) | % Inhibition (ID list), D60 (TGR [2]; list for plotting) | Inhibitor (rate), 0 min (TGR [2]) | % Activity, 0 min (TGR [2]) | Inhibitor (rate), 60 min (TGR [2]) | % Activity, 60 min (TGR [2]) | Inhibitor (rate), -15 (TGR [2]) | % Activity, -15 (TGR [2]) | % Activity (ID list) (TGR [2]; list for plotting) | % Inhibition (ID list) (TGR [2]; list for plotting) | inhibition at 10 µM (BmTrxR; [5]) | inhibition at 25 µM (BmTrxR; [5]) | inhibition at 50 µM (BmTrxR; [6]) | other results |
| --- | --- | --- | --- | --- | --- | --- | --- | --- | --- | --- | --- | --- | --- | --- | --- | --- | --- | --- | --- |
| Cc1oc(C2CCCCC2)nc1CN[C@@H]1C[C@@H]2C[C@H]([C@H]1C)C2(C)C [Compound 4] | 65.7% | 45.3% | 27.7% | 14.2 ± 2.13 µM | 102.5% and 102.9% and 117.3% | 106.3% | -15.2% and -8.7% and -6.3% | 0.04729 and 0.04838 and 0.05087 | 102.47% and 102.936% and 117.347% | 0.04596 and 0.04643 and 0.04838 | 106.315% and 104.173% and 103.664% | 0.01214 and 0.0123 and 0.01219 | 35.2293% and 34.0532% and 34.3671% | 35.2% and 34.1% and 34.4% | 64.8% and 65.9% and 65.6% | -0.192% | 0.661% | 0.575% | LD50 ex vivo S. japonicum adult (S. japonicum adult worms): 27.1 ± 1.75 µM; BmTrxR % inhibition at 50 µM (BmTrxR; 50 µM, the highest concentration tested): n.i. |
| Cc1oc(-c2ccc3ccccc3c2)nc1CNC1CCCCCC1 [Compound 5] | 65.4% | 52.1% | 36.8% | 16.9 ± 2.80 µM | 94.7% and 95.5% and 104.1% | 114.3% and 110.2% | -11.2% and -14.3% and -10.2% | 0.0437 and 0.04487 and 0.04514 | 94.6912% and 95.4681% and 104.129% | 0.04807 and 0.05093 and 0.05141 | 111.196% and 114.27% and 110.156% | 0.01816 and 0.01807 and 0.01832 | 52.6988% and 50.0277% and 51.6493% | 52.7% and 50.0% and 51.6% | 47.3% and 50.0% and 48.4% | -0.384% | 3.27% | 9.07% | % Inhibition (ID list), D0 (TGR [2]; [4]): 5.3% and 4.5% and -4.1%; Avg. Tm (TGR [3]; TGR + 100 µM compound): 73.5; Avg. Tm, + 500 µM NADPH (TGR [3]; TGR + 100 µM compound + 500 µM NADPH): 73.5; Tm, replicate 1-3, + 500 µM NADPH (TGR [3]; TGR + 100 µM compound + 500 µM NADPH, single replicates, in °C (unit assumed)): 73.5; Tm, replicate 1-3 (TGR [3]; TGR + 100 µM compound, single replicates, in °C (unit assumed)): 73.5; effect on Tm of oxidized TGR (TGR [3]; without NADPH): Neither fast 6-9 nor slow TGR inhibitors 1, 3, 5 affected the Tm; inhibition at 50 µM (BmTrxR; read-out: BmTrxR % inhibition at 50 µM, 50 µM, the highest concentration tested): 9% |
